Key:
[1] = molecular target: Serotonin 2 (5-HT2) receptor (Rattus norvegicus) (UniProt P30994+P08909+P14842); experiment: Displacement of [3H]ketanserin from 5-HT2 receptor in Wistar rat brain cortex membrane at 10 uM after 40 mins by scintillation counting analysis relative to control; format: cell membranes
[2] = molecular target: Sodium-dependent noradrenaline transporter (Homo sapiens) (UniProt P23975); experiment: Displacement of [3H]nisoxetine recombinant human norepinephrine transporter at 10 uM after 120 mins by radiometric scintillation analysis relative to control
[3] = molecular target: B2 bradykinin receptor (Homo sapiens) (UniProt P30411); experiment: Displacement of [3H]bradykinin from recombinant human B2 receptor at 10 uM after 60 mins by radiometric scintillation analysis relative to control
Chain of B2 bradykinin receptor (Homo sapiens) (P30411 whole entry): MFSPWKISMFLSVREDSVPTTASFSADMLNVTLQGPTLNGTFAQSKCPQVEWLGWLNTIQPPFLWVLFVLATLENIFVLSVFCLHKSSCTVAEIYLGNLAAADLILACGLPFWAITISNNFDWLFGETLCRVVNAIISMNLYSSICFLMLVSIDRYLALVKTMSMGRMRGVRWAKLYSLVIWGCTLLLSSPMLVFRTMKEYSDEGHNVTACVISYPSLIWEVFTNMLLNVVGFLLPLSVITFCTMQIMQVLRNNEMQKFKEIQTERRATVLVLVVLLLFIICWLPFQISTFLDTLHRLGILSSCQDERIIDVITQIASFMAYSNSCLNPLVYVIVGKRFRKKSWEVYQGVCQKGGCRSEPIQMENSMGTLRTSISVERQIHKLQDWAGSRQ

[4] = molecular target: 5-hydroxytryptamine receptor 1A (Homo sapiens) (UniProt P08908); experiment: Displacement of [3H]8-OH-DPAT from recombinant human 5-HT1A receptor at 10 uM after 60 mins by radiometric scintillation analysis relative to control
[5] = Cmax in CD-1 mouse plasma at 5 mg/kg, ip measured up to 480 mins by LC/ESI-MS/MS analysis; format: ADME, organism-based; set-up: dose 5 mg/kg, route intraperitoneal
[6] = molecular target: Neurotensin receptor type 1 (Homo sapiens) (UniProt P30989); experiment: Displacement of [125I]Tyr3-neurotensin from human NSTR1 receptor at 10 uM after 60 mins by radiometric scintillation analysis relative to control
Chain of Neurotensin receptor type 1 (Homo sapiens) (P30989 whole entry): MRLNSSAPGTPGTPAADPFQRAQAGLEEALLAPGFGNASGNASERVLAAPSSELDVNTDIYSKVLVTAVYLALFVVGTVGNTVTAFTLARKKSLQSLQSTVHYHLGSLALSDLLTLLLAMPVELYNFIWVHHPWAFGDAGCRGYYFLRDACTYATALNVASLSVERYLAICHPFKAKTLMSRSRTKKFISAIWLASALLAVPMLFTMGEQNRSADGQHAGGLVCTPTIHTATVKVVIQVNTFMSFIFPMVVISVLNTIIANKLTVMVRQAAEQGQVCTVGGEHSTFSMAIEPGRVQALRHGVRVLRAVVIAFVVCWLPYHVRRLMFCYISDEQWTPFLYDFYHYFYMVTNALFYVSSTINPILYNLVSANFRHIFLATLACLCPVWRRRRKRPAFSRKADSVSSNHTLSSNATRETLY

Mus musculus = experiment: Anxiolytic activity in albino Swiss CD-1 mouse assessed as increase in number of punished crossings at 10 mg/kg, ip administered 30 mins prior to test by four-plate test relative to control; format: functional
[7] = Mutagenicity in Salmonella typhimurium TA98 at 5 ug/plate preincubated for 20 mins followed by addition of top agar and measured after 48 hrs by Ames test; format: toxicity; conditions: salmonella enterica subsp. enterica serovar typhimurium
[8] = molecular target: C-C chemokine receptor type 1 (Homo sapiens) (UniProt P32246); experiment: Displacement of [125I]MIP-1alpha from recombinant human CCR1 receptor at 10 uM after 120 mins by radiometric scintillation analysis relative to control
Chain of C-C chemokine receptor type 1 (Homo sapiens) (P32246 whole entry): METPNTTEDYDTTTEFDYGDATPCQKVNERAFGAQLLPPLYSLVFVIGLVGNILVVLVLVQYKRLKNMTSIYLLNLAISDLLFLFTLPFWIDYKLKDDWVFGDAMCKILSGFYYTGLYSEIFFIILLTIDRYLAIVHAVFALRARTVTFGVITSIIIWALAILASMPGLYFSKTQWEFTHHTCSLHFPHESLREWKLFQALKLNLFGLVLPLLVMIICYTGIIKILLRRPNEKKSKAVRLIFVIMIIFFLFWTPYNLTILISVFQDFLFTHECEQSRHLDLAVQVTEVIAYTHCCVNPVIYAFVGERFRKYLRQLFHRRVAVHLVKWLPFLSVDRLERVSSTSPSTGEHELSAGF

[9] = Apparent volume of distribution in CD-1 mouse plasma at 5 mg/kg, ip measured up to 480 mins by LC/ESI-MS/MS analysis; format: ADME, organism-based
[10] = molecular target: Beta-2 adrenergic receptor (Homo sapiens) (UniProt P07550); experiment: Displacement of [3H](-)CGP 12177 from recombinant human beta 2 receptor at 10 uM after 120 mins by radiometric scintillation analysis relative to control
Chain of Beta-2 adrenergic receptor (Homo sapiens) (P07550 whole entry, looked up): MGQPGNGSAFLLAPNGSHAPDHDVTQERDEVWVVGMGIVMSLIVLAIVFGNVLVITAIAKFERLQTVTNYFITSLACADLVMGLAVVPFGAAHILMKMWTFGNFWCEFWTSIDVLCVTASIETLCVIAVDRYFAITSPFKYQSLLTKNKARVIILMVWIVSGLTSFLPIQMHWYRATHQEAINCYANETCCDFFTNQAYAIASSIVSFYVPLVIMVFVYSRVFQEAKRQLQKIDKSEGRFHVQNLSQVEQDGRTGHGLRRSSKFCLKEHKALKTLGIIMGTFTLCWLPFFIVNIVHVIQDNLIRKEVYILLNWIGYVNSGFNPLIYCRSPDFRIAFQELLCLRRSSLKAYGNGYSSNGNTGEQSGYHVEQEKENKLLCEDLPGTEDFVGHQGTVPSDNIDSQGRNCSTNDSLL

[11] = molecular target: Adenosine receptor A2a (Homo sapiens) (UniProt P29274); experiment: Displacement of [3H]CGS 21680 from recombinant human A2A receptor at 10 uM after 120 mins by radiometric scintillation analysis relative to control
Chain of Adenosine receptor A2a (Homo sapiens) (P29274 whole entry): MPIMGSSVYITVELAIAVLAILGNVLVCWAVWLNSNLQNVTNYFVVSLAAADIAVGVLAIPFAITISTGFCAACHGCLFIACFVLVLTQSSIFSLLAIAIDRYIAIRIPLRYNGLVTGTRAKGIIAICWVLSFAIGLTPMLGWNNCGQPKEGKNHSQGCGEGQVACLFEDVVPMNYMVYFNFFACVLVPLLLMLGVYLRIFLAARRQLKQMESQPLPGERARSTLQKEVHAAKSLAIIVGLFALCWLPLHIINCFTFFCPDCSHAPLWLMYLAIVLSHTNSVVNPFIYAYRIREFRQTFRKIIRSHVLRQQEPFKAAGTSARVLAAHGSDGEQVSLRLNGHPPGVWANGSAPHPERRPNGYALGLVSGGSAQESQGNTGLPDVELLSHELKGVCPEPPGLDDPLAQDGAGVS

[12] = molecular target: Galanin receptor type 2 (Homo sapiens) (UniProt O43603); experiment: Displacement of [125I]galanin from recombinant human GAL2 receptor at 10 uM after 120 mins by radiometric scintillation analysis relative to control
Chain of Galanin receptor type 2 (Homo sapiens) (O43603 whole entry): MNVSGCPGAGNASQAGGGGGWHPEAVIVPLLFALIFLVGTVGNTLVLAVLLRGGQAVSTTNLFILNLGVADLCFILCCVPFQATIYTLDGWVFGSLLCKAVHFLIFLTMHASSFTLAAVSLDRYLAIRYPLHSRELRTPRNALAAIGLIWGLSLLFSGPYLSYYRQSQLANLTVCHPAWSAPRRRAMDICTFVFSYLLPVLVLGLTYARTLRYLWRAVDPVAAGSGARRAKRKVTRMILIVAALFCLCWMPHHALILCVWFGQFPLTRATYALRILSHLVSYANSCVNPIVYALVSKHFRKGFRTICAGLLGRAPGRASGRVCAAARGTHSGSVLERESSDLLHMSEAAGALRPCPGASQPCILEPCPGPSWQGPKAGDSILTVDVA

[13] = Tmax in CD-1 mouse plasma at 5 mg/kg, ip measured up to 480 mins by LC/ESI-MS/MS analysis; format: ADME, organism-based
[14] = molecular target: Adrenergic receptor alpha-2 (Rattus norvegicus) (UniProt P22086+P19328+P22909); experiment: Displacement of [3H]RX 821002 from rat brain alpha 2 receptor at 10 uM after 60 mins by radiometric scintillation analysis relative to control
[15] = molecular target: Neuropeptide Y receptor type 1 (Homo sapiens) (UniProt P25929); experiment: Displacement of [125I]peptide YY from human Y1 receptor at 10 uM after 120 mins by radiometric scintillation analysis relative to control
Chain of Neuropeptide Y receptor type 1 (Homo sapiens) (P25929 whole entry): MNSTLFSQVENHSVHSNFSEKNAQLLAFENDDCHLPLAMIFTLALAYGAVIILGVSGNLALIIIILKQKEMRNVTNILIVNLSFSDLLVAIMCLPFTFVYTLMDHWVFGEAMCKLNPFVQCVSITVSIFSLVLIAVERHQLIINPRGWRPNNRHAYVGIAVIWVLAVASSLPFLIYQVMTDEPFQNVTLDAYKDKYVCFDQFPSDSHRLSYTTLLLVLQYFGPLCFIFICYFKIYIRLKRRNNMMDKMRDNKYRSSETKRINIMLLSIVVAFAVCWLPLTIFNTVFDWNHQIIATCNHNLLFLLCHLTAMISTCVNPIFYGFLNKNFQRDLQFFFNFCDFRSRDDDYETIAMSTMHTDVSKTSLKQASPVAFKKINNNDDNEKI

[16] = molecular target: Substance-K receptor (Homo sapiens) (UniProt P21452); experiment: Displacement of [125I]NKA from recombinant human NK2 receptor at 10 uM after 60 mins by radiometric scintillation analysis relative to control
[17] = molecular target: Histamine H1 receptor (Homo sapiens) (UniProt P35367); experiment: Displacement of [3H]pyrilamine from recombinant human H1 histamine receptor at 10 uM after 60 mins by radiometric scintillation analysis relative to control
[18] = molecular target: Serotonin 3 (5-HT3) receptor (Homo sapiens) (UniProt P46098+A5X5Y0+O95264+Q70Z44+Q8WXA8); experiment: Displacement of [3H]BRL 43694 from recombinant human 5-HT3 receptor at 10 uM after 120 mins by radiometric scintillation analysis relative to control; format: protein-complex assay
[19] = Terminal half life in CD-1 mouse plasma at 5 mg/kg, ip measured up to 480 mins by LC/ESI-MS/MS analysis; format: ADME, organism-based; conditions: read-out: beta t1/2
[20] = molecular target: Kappa-type opioid receptor (Homo sapiens) (UniProt P41145); experiment: Displacement of [3H]U69593 from human KOR receptor at 10 uM after 60 mins by radiometric scintillation analysis relative to control
[21] = molecular target: D(1A) dopamine receptor (Homo sapiens) (UniProt P21728); experiment: Displacement of [3H]SCH 23390 from recombinant human D1 dopamine receptor at 10 uM after 60 mins by radiometric scintillation analysis relative to control
[22] = molecular target: Adenosine receptor A1 (Homo sapiens) (UniProt P30542); experiment: Displacement of [3H]DPCPX from recombinant human A1 receptor at 10 uM after 60 mins by radiometric scintillation analysis relative to control
[23] = molecular target: Nociceptin receptor (Homo sapiens) (UniProt P41146); experiment: Displacement of [3H]nociceptin from recombinant human ORL1 receptor at 10 uM after 60 mins by radiometric scintillation analysis relative to control
[24] = molecular target: Endothelin-1 receptor (Homo sapiens) (UniProt P25101); experiment: Displacement of [125I]endothelin-1 from recombinant human ETA receptor at 10 uM after 120 mins by radiometric scintillation analysis relative to control
[25] = AUC (0 to total) in CD-1 mouse brain at 5 mg/kg, ip measured up to 480 mins by LC/ESI-MS/MS analysis; format: ADME, organism-based; conditions: in vivo, 8 h
[26] = molecular target: 5-hydroxytryptamine receptor 2A (Homo sapiens, UniProt P28223); experiment: Displacement of [3H]ketanserin from recombinant human 5-HT2A receptor at 10 uM after 60 mins by radiometric scintillation analysis relative to control
[27] = Mutagenicity in Salmonella typhimurium TA100 at 50 ug/plate preincubated for 20 mins followed by addition of top agar and measured after 48 hrs by Ames test; format: toxicity; conditions: salmonella enterica subsp. enterica serovar typhimurium
[28] = molecular target: Melatonin receptor type 1A (Homo sapiens) (UniProt P48039); experiment: Displacement of [125I]2-iodomelatonin from recombinant human MT1 receptor at 10 uM after 240 mins by radiometric scintillation counting analysis relative to control
Chain of Melatonin receptor type 1A (Homo sapiens) (P48039 whole entry): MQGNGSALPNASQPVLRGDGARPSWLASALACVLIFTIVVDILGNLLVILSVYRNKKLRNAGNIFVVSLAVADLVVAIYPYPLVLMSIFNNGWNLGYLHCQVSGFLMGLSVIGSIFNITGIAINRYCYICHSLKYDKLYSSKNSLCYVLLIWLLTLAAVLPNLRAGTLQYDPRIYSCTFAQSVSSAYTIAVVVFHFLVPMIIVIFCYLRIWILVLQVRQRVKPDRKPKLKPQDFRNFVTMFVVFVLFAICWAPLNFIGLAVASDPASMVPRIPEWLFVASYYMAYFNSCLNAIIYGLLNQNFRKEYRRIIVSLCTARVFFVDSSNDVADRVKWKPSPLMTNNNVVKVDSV

[29] = molecular target: Melanocortin receptor 4 (Homo sapiens) (UniProt P32245); experiment: Displacement of [125I]NDP-alpha -MSH from recombinant human MC4 receptor at 10 uM after 120 mins by radiometric scintillation counting analysis relative to control
Chain of Melanocortin receptor 4 (Homo sapiens) (P32245 whole entry): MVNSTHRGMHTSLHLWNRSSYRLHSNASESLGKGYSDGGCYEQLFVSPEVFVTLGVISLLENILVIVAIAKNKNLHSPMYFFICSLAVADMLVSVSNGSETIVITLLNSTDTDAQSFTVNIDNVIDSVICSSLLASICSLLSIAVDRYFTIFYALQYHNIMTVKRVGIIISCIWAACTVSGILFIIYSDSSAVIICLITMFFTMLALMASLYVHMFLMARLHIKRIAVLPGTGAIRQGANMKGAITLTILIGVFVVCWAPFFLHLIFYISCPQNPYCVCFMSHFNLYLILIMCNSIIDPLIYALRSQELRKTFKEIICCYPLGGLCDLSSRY

[30] = molecular target: Somatostatin receptor type 4 (Mus musculus) (UniProt P49660); experiment: Displacement of [125I]Tyr11-somatostatin-14 from mouse SST4 receptor at 10 uM after 120 mins by radiometric scintillation analysis relative to control

Chain of Serotonin 2 (5-HT2) receptor (Rattus norvegicus) (P08909 whole entry, looked up): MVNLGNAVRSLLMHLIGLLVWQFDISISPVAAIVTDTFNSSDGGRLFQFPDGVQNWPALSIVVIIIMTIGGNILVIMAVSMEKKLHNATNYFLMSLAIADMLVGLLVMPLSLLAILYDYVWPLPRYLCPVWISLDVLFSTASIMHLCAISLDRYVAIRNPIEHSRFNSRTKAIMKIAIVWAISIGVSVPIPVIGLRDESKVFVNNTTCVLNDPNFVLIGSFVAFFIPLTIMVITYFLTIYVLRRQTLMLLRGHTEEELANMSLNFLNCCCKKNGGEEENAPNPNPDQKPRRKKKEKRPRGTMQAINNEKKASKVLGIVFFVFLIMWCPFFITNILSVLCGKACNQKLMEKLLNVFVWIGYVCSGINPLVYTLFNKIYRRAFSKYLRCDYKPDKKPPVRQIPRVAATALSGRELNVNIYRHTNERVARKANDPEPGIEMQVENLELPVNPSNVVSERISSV
Chain of Serotonin 2 (5-HT2) receptor (Rattus norvegicus) (P14842 whole entry, looked up): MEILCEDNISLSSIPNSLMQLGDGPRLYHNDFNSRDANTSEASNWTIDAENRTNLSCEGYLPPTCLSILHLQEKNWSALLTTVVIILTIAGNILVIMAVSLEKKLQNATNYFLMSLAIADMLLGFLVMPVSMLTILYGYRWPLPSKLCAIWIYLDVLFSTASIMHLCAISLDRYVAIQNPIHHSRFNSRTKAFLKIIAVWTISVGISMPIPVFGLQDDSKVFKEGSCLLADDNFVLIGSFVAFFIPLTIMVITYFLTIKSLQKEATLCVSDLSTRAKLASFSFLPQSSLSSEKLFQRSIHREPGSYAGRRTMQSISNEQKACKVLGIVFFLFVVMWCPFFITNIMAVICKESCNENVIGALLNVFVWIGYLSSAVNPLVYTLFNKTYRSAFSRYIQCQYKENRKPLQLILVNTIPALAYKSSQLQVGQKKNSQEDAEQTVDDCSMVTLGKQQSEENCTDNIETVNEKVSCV
Chain of Serotonin 2 (5-HT2) receptor (Rattus norvegicus) (P30994 whole entry, looked up): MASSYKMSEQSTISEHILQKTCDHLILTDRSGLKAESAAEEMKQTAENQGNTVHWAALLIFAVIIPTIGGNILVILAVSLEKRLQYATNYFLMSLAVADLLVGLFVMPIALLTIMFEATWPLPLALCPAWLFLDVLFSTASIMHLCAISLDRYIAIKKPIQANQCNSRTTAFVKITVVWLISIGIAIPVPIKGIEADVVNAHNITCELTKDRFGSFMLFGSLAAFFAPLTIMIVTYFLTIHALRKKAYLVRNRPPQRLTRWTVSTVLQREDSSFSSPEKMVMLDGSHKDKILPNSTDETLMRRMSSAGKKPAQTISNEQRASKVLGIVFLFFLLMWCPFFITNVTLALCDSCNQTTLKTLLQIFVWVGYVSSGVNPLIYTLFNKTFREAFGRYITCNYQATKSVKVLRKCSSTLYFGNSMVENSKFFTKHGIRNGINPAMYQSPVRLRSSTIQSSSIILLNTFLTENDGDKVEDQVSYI

With `Cl.Cl.O=c1c2cc(Cl)ccc2oc2ccc(CN3CCN(CCOCCO)CC3)cc12` as the compound, how does the inhibition [1] read?
Its inhibition is 47%.

And the inhibition [2]?
The inhibition was 43.1%.

And the inhibition [3]?
The inhibition was -7%.

And the inhibition [4]?
The inhibition was -2.6%.

And the Cmax [5]?
The Cmax was 1920 ng/mL.

And the inhibition [6]?
Its inhibition is -3.5%.

And the Activity (Mus musculus)?
Its Activity is 50.1%.

What about the Activity_index [7] of the same compound?
Its Activity_index is 1.03.

And the inhibition [8]?
The inhibition was -3.1%.

And the Vd/F [9]?
Its Vd/F is 3.06 L/kg.

And the inhibition [10]?
The inhibition was 3.7%.

And the inhibition [11]?
Its inhibition is 12.2%.

And the inhibition [12]?
The inhibition was 1.4%.

What about the Tmax [13] of the same compound?
Its Tmax is 0.25 h.

What about the inhibition [14] of the same compound?
The inhibition was 9.2%.

What about the inhibition [15] of the same compound?
The inhibition was -9.5%.

And the inhibition [16]?
The inhibition was 49.4%.

What about the inhibition [17] of the same compound?
The inhibition was 43.1%.

What about the inhibition [18] of the same compound?
Its inhibition is 5.5%.

And the half-life [19]?
Its half-life is 2.89 h.

What about the inhibition [20] of the same compound?
The inhibition was 12.2%.

And the inhibition [21]?
Its inhibition is 8.9%.

What about the inhibition [22] of the same compound?
The inhibition was 0.6%.

What about the inhibition [23] of the same compound?
Its inhibition is 6.5%.

What about the inhibition [24] of the same compound?
The inhibition was 4.9%.

And the AUCt [25]?
The AUCt was 3227321 ng·min/g.

What about the inhibition [26] of the same compound?
Its inhibition is 62.8%.

And the Activity_index [27]?
The Activity_index was 0.64.

What about the inhibition [28] of the same compound?
Its inhibition is 11.1%.

What about the inhibition [29] of the same compound?
The inhibition was -4%.

And the inhibition [30]?
Its inhibition is -2.9%.
